# Measurements: PubChem BioAssay AID1918955 (Molecular Pharmacology Branch, DTP, NCI, 2023)
# Test system: NCI/ADR-RES complex spheroid viability
# Experiment: Anticancer human tumor NCI/ADR-RES cell line growth inhibition;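 for viability, T/C: 100% = DMSO vehicle treated spheroids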
# Details: for IC50: curve of first compound; for viability, T/C: stronger effect = lower value
# Procedure, shortened: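 Complex spheroids of tumor cells with HUVEC and human MSCs, exposed to iadademstat combined with other agents. Each agent tested in half-log steps from near clinical Cmax (else 10 microM top), DMSO ≤0.25%.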
# [1] = second compound 0.1 µM, first compound 0.00316 µM
# [2] = second compound 0.1 µM, first compound 0.01 µM
# [3] = second compound 0.1 µM, first compound 0.0316 µM
# [4] = second compound 0.1 µM, first compound 0.1 µM
# [5] = second compound 0.1 µM, first compound 0.316 µM
# [6] = second compound 0.1 µM, first compound 1 µM
# [7] = second compound 0.316 µM, first compound 0.00316 µM
# [8] = second compound 0.316 µM, first compound 0.01 µM
# [9] = second compound 0.316 µM, first compound 0.0316 µM
# [10] = second compound 0.316 µM, first compound 0.1 µM
# [11] = second compound 0.316 µM, first compound 0.316 µM
# [12] = second compound 0.316 µM, first compound 1 µM
# [13] = second compound 1 µM, first compound 0.00316 µM
# [14] = second compound 1 µM, first compound 0.01 µM
# [15] = second compound 1 µM, first compound 0.0316 µM
# [16] = second compound 1 µM, first compound 0.1 µM
# [17] = second compound 1 µM, first compound 0.316 µM
# [18] = second compound 1 µM, first compound 1 µM
# [19] = second compound 3.16 µM, first compound 0.00316 µM
# [20] = second compound 3.16 µM, first compound 0.01 µM
# [21] = second compound 3.16 µM, first compound 0.0316 µM
# [22] = second compound 3.16 µM, first compound 0.1 µM
# [23] = second compound 3.16 µM, first compound 0.316 µM
# [24] = second compound 3.16 µM, first compound 1 µM
# [25] = second compound 10 µM, first compound 0.00316 µM
# [26] = second compound 10 µM, first compound 0.01 µM
# [27] = second compound 10 µM, first compound 0.0316 µM
# [28] = second compound 10 µM, first compound 0.1 µM
# [29] = second compound 10 µM, first compound 0.316 µM
# [30] = second compound 10 µM, first compound 1 µM
# [31] = second compound 0.1 µM, first compound 0.00949 µM
# [32] = second compound 0.1 µM, first compound 0.03 µM
# [33] = second compound 0.1 µM, first compound 0.0949 µM
# [34] = second compound 0.1 µM, first compound 0.3 µM
# [35] = second compound 0.316 µM, first compound 0.00949 µM
# [36] = second compound 0.316 µM, first compound 0.03 µM
# [37] = second compound 0.316 µM, first compound 0.0949 µM
# [38] = second compound 0.316 µM, first compound 0.3 µM
# [39] = second compound 1 µM, first compound 0.00949 µM
# [40] = second compound 1 µM, first compound 0.03 µM
# [41] = second compound 1 µM, first compound 0.0949 µM
# [42] = second compound 1 µM, first compound 0.3 µM
# [43] = second compound 3.16 µM, first compound 0.00949 µM
# [44] = second compound 3.16 µM, first compound 0.03 µM
# [45] = second compound 3.16 µM, first compound 0.0949 µM
# [46] = second compound 3.16 µM, first compound 0.3 µM
# [47] = second compound 10 µM, first compound 0.00949 µM
# [48] = second compound 10 µM, first compound 0.03 µM
# [49] = second compound 10 µM, first compound 0.0949 µM
# [50] = second compound 10 µM, first compound 0.3 µM
compound,measurement,setting,value
CC1COCCN1c1cc(-c2ccnn2C)c2ccnc(-c3ccn[nH]3)c2n1 (stereo not given) + NC1CC1c1ccc(-c2cccc(O)c2)cc1,IC50,second compound 0.1 µM,0.0118 µM
same,IC50,second compound 0.316 µM,0.0136 µM
same,IC50,second compound 1 µM,0.0123 µM
same,IC50,second compound 3.16 µM,0.0126 µM
same,IC50,second compound 10 µM,0.013 µM
same,"viability, T/C",[1],94.5%
same,"viability, T/C",[2],56.5%
same,"viability, T/C",[3],11.9%
same,"viability, T/C",[4],2.87%
same,"viability, T/C",[5],1.82%
same,"viability, T/C",[6],1.99%
same,"viability, T/C",[7],93.9%
same,"viability, T/C",[8],63.8%
same,"viability, T/C",[9],11.9%
same,"viability, T/C",[10],2.5%
same,"viability, T/C",[11],2.17%
same,"viability, T/C",[12],2.31%
same,"viability, T/C",[13],95.2%
same,"viability, T/C",[14],57.5%
same,"viability, T/C",[15],16.2%
same,"viability, T/C",[16],2.46%
same,"viability, T/C",[17],1.61%
same,"viability, T/C",[18],1.71%
same,"viability, T/C",[19],92.3%
same,"viability, T/C",[20],58.4%
same,"viability, T/C",[21],16.9%
same,"viability, T/C",[22],2.63%
same,"viability, T/C",[23],1.85%
same,"viability, T/C",[24],2.16%
same,"viability, T/C",[25],75.9%
same,"viability, T/C",[26],58.6%
same,"viability, T/C",[27],20.3%
same,"viability, T/C",[28],4.64%
same,"viability, T/C",[29],2.38%
same,"viability, T/C",[30],2.48%
CC1COCCN1c1cc(C2(S(C)(=N)=O)CC2)nc(-c2ccnc3[nH]ccc23)n1 (stereo not given) + NC1CC1c1ccc(-c2cccc(O)c2)cc1,IC50,second compound 0.1 µM,7 µM
same,IC50,second compound 0.316 µM,9.41 µM
same,IC50,second compound 1 µM,6.18 µM
same,IC50,second compound 3.16 µM,6.48 µM
same,IC50,second compound 10 µM,5.36 µM
same,"viability, T/C",[3],108%
same,"viability, T/C",[4],108%
same,"viability, T/C",[5],97.4%
same,"viability, T/C",[6],90%
same,"viability, T/C","second compound 0.1 µM, first compound 3.16 µM",71.5%
same,"viability, T/C","second compound 0.1 µM, first compound 10 µM",40.4%
same,"viability, T/C",[9],110%
same,"viability, T/C",[10],104%
same,"viability, T/C",[11],103%
same,"viability, T/C",[12],91.8%
same,"viability, T/C","second compound 0.316 µM, first compound 3.16 µM",73.2%
same,"viability, T/C","second compound 0.316 µM, first compound 10 µM",48.7%
same,"viability, T/C",[15],96.4%
same,"viability, T/C",[16],97.4%
same,"viability, T/C",[17],93.8%
same,"viability, T/C",[18],90.1%
same,"viability, T/C","second compound 1 µM, first compound 3.16 µM",64.8%
same,"viability, T/C","second compound 1 µM, first compound 10 µM",39.4%
same,"viability, T/C",[21],101%
same,"viability, T/C",[22],95.1%
same,"viability, T/C",[23],95.8%
same,"viability, T/C",[24],86%
same,"viability, T/C","second compound 3.16 µM, first compound 3.16 µM",65.4%
same,"viability, T/C","second compound 3.16 µM, first compound 10 µM",40.6%
same,"viability, T/C",[27],93.2%
same,"viability, T/C",[28],94.1%
same,"viability, T/C",[29],84.9%
same,"viability, T/C",[30],71.6%
same,"viability, T/C","second compound 10 µM, first compound 3.16 µM",61.3%
same,"viability, T/C","second compound 10 µM, first compound 10 µM",38.5%
CCN(c1cc(-c2ccc(CN3CCOCC3)cc2)cc(C(=O)NCc2c(C)cc(C)[nH]c2=O)c1C)C1CCOCC1 + NC1CC1c1ccc(-c2cccc(O)c2)cc1,IC50,second compound 0.1 µM,> 3 µM
same,IC50,second compound 0.316 µM,> 3 µM
same,IC50,second compound 1 µM,> 3 µM
same,IC50,second compound 3.16 µM,> 3 µM
same,IC50,second compound 10 µM,> 3 µM
same,"viability, T/C",[31],102%
same,"viability, T/C",[32],104%
same,"viability, T/C",[33],104%
same,"viability, T/C",[34],106%
same,"viability, T/C","second compound 0.1 µM, first compound 0.949 µM",94.2%
same,"viability, T/C","second compound 0.1 µM, first compound 3 µM",88.9%
same,"viability, T/C",[35],104%
same,"viability, T/C",[36],102%
same,"viability, T/C",[37],104%
same,"viability, T/C",[38],103%
same,"viability, T/C","second compound 0.316 µM, first compound 0.949 µM",105%
same,"viability, T/C","second compound 0.316 µM, first compound 3 µM",95.5%
same,"viability, T/C",[39],92.1%
same,"viability, T/C",[40],96.3%
same,"viability, T/C",[41],104%
same,"viability, T/C",[42],90.2%
same,"viability, T/C","second compound 1 µM, first compound 0.949 µM",93.4%
same,"viability, T/C","second compound 1 µM, first compound 3 µM",87.7%
same,"viability, T/C",[43],93%
same,"viability, T/C",[44],99%
same,"viability, T/C",[45],95.3%
same,"viability, T/C",[46],94.9%
same,"viability, T/C","second compound 3.16 µM, first compound 0.949 µM",90.2%
same,"viability, T/C","second compound 3.16 µM, first compound 3 µM",81.8%
same,"viability, T/C",[47],92.6%
same,"viability, T/C",[48],87.8%
same,"viability, T/C",[49],91.8%
same,"viability, T/C",[50],86.7%
same,"viability, T/C","second compound 10 µM, first compound 0.949 µM",82.7%
same,"viability, T/C","second compound 10 µM, first compound 3 µM",79%
Nc1ncn(C2CC(O)C(CO)S2)c(=O)n1 (stereo not given) + NC1CC1c1ccc(-c2cccc(O)c2)cc1,IC50,second compound 0.1 µM,0.0074 µM
same,IC50,second compound 0.316 µM,0.00752 µM
same,IC50,second compound 1 µM,0.00682 µM
same,IC50,second compound 3.16 µM,0.00554 µM
same,IC50,second compound 10 µM,0.00448 µM
same,"viability, T/C","second compound 0.1 µM, first compound 0.000949 µM",89.3%
same,"viability, T/C","second compound 0.1 µM, first compound 0.003 µM",66%
same,"viability, T/C",[31],44.7%
same,"viability, T/C",[32],29.6%
same,"viability, T/C",[33],11.8%
same,"viability, T/C",[34],2.46%
same,"viability, T/C","second compound 0.316 µM, first compound 0.000949 µM",91.2%
same,"viability, T/C","second compound 0.316 µM, first compound 0.003 µM",62.5%
same,"viability, T/C",[35],47.8%
same,"viability, T/C",[36],30.6%
same,"viability, T/C",[37],9.77%
same,"viability, T/C",[38],2.75%
same,"viability, T/C","second compound 1 µM, first compound 0.000949 µM",88.4%
same,"viability, T/C","second compound 1 µM, first compound 0.003 µM",68%
same,"viability, T/C",[39],41.2%
same,"viability, T/C",[40],25.5%
same,"viability, T/C",[41],9.64%
same,"viability, T/C",[42],2.79%
same,"viability, T/C","second compound 3.16 µM, first compound 0.000949 µM",85.4%
same,"viability, T/C","second compound 3.16 µM, first compound 0.003 µM",58.3%
same,"viability, T/C",[43],43%
same,"viability, T/C",[44],24.6%
same,"viability, T/C",[45],9.31%
same,"viability, T/C",[46],2.63%
same,"viability, T/C","second compound 10 µM, first compound 0.000949 µM",77%
same,"viability, T/C","second compound 10 µM, first compound 0.003 µM",54%
same,"viability, T/C",[47],38.6%
same,"viability, T/C",[48],26.2%
same,"viability, T/C",[49],11.8%
same,"viability, T/C",[50],3.24%
O=C(C=Cn1cnc(-c2cc(C(F)(F)F)cc(C(F)(F)F)c2)n1)NNc1cnccn1 + NC1CC1c1ccc(-c2cccc(O)c2)cc1,IC50,second compound 0.1 µM,0.0047 µM
same,IC50,second compound 0.316 µM,0.00442 µM
same,IC50,second compound 1 µM,0.00418 µM
same,IC50,second compound 3.16 µM,0.00479 µM
same,IC50,second compound 10 µM,0.00402 µM
same,"viability, T/C",[1],65.4%
same,"viability, T/C",[2],19.6%
same,"viability, T/C",[3],13%
same,"viability, T/C",[4],6.61%
same,"viability, T/C",[5],1.72%
same,"viability, T/C",[6],0.88%
same,"viability, T/C",[7],60.6%
same,"viability, T/C",[8],23.3%
same,"viability, T/C",[9],12.6%
same,"viability, T/C",[10],7.91%
same,"viability, T/C",[11],2.06%
same,"viability, T/C",[12],1.08%
same,"viability, T/C",[13],59.5%
same,"viability, T/C",[14],20.4%
same,"viability, T/C",[15],13.9%
same,"viability, T/C",[16],8.19%
same,"viability, T/C",[17],1.99%
same,"viability, T/C",[18],0.85%
same,"viability, T/C",[19],64.2%
same,"viability, T/C",[20],22.7%
same,"viability, T/C",[21],16.5%
same,"viability, T/C",[22],10.7%
same,"viability, T/C",[23],2.96%
same,"viability, T/C",[24],0.98%
same,"viability, T/C",[25],57.1%
same,"viability, T/C",[26],22.1%
same,"viability, T/C",[27],16%
same,"viability, T/C",[28],10.1%
same,"viability, T/C",[29],5.13%
same,"viability, T/C",[30],2.52%
